Assay results taken from patent US9580431B2, “Inhibitors of human immunodeficiency virus replication” (priority 2013, dated 2017).

These compounds were tested on recombinant NL-Rluc virus (assay: microbe, parasite or virus in culture). Details: Human immunodeficiency virus 1, MT2, 120 h, NL-RLuc virus infecting MT-2 cells, 5 days of incubation, luciferase readout; at least 2 experiments; serum condition not given; read-out: EC50.
Type: cell-based, HIV

Row | Compound | EC50 [nM]
1 | Cc1nc2cc(-c3ncc(Cc4ccc(F)cc4)s3)nn2c(-c2cc(F)c3c(c2C)CCCO3)c1[C@H](OC(C)(C)C)C(=O)O [Example 5, (2S)-2-(tert-Butoxy)-2-(7-(8-fluoro-5-methylchroman-6-yl)-2-(5-(4-fluorobenzyl)thiazol-2-yl)-5-methylpyrazolo[1,5-a]pyrimidin-6-yl)acetic acid] | 3
2 | Cc1nc2cc(-c3ncc(Cc4ccc(F)cc4)s3)nn2c(N2CCC(C)(C)CC2)c1[C@H](OC(C)(C)C)C(=O)O [Example 13, (S)-2-(tert-Butoxy)-2-(7-(4,4-dimethylpiperidin-1-yl)-2-(5-(4-fluorobenzyl)thiazol-2-yl)-5-methylpyrazolo[1,5-a]pyrimidin-6-yl)acetic acid] | 14
3 | Cc1nc2cc(-c3ncc(-c4ccc(F)cc4)s3)nn2c(-c2cc(F)c3c(c2C)CCCO3)c1[C@H](OC(C)(C)C)C(=O)O [Example 8, (2S)-2-(tert-Butoxy)-2-(7-(8-fluoro-5-methylchroman-6-yl)-2-(5-(4-fluorophenyl)thiazol-2-yl)-5-methylpyrazolo[1,5-a]pyrimidin-6-yl)acetic acid] | 11
4 | Cc1nc2cc(-n3nccc3Cc3ccccc3)nn2c(N2CCC(C)(C)CC2)c1[C@H](OC(C)(C)C)C(=O)O [Example 35, (S)-2-(2-(5 Benzyl-1H-pyrazol-1-yl)-7-(4,4-dimethylpiperidin-1-yl)-5-methylpyrazolo[1,5-a]pyrimidin-6-yl)-2-(tert-butoxy)acetic acid] | 573
5 | Cc1nc2cc(-c3nc(Cc4ccc(F)cc4)no3)nn2c(-c2cc(F)c3c(c2C)CCCO3)c1[C@H](OC(C)(C)C)C(=O)O [Example 7, (2S)-2-(tert-Butoxy)-2-(7-(8-fluoro-5-methylchroman-6-yl)-2-(3-(4-fluorobenzyl)-1,2,4-oxadiazol-5-yl)-5-methylpyrazolo[1,5-a]pyrimidin-6-yl)acetic acid] | 28
6 | Cc1nc2cc(-c3ncc(Cc4ccc(F)cc4)s3)nn2c(C2=CCC(C)(C)CC2)c1[C@H](OC(C)(C)C)C(=O)O [Example 10, (S)-2-(tert-Butoxy)-2-(7-(4,4-dimethylcyclohex-1-en-1-yl)-2-(5-(4-fluorobenzyl)thiazol-2-yl)-5-methylpyrazolo[1,5-a]pyrimidin-6-yl)acetic acid] | 19
7 | Cc1nc2cc(-c3nc4cc(Cl)ccc4[nH]3)nn2c(-c2cc(F)c3c(c2C)CCCO3)c1[C@H](OC(C)(C)C)C(=O)O [Example 1, (2S)-2-(tert-Butoxy)-2-(2-(5-chloro-1H-benzo[d]imidazol-2-yl)-7-(8-fluoro-5-methylchroman-6-yl)-5-methylpyrazolo[1,5-a]pyrimidin-6-yl)acetic acid] | 47
8 | C=CCOC1(C)CCN(c2c([C@H](OC(C)(C)C)C(=O)O)c(C)nc3cc(-c4cnn(Cc5ccccc5)c4)nn23)CC1 [Example 40, (S)-2-(7-(4-(Allyloxy)-4-methylpiperidin-1-yl)-2-(1-benzyl-1H-pyrazol-4-yl)-5-methylpyrazolo[1,5-a]pyrimidin-6-yl)-2-(tert-butoxy)acetic acid] | 11
9 | C=CCOC1(C)CCN(c2c([C@H](OC(C)(C)C)C(=O)O)c(C)nc3cc(-c4cn(Cc5ccccc5)cn4)nn23)CC1 [Example 41, (S)-2-(7-(4-(Allyloxy)-4-methylpiperidin-1-yl)-2-(1-benzyl-1H-imidazol-4-yl)-5-methylpyrazolo[1,5-a]pyrimidin-6-yl)-2-(tert-butoxy)acetic acid] | 15
10 | Cc1nc2cc(-c3ncc(Cc4ccc(F)cc4)s3)nn2c(N2CCC(C)(C3CC3)CC2)c1[C@H](OC(C)(C)C)C(=O)O [Example 24, (S)-2-(tert-Butoxy)-2-(7-(4-cyclopropyl-4-methylpiperidin-1-yl)-2-(5-(4-fluorobenzyl)thiazol-2-yl)-5-methylpyrazolo[1,5-a]pyrimidin-6-yl)acetic acid] | 26
